A word on the Emax: it is the size of the effect at its maximum, as opposed to the concentration needed.

The target of one assay is Atlantic cod Ahr1a (Gadus morhua, UniProt A0A6H1Z2L5). The assay can be described thus: cell-based. Conditions: for Activation of Ahr1a (agonist or not): in vitro transactivation; for Emax: COS-7, curve did not reach a plateau: relative response at the highest tested concentration, percent of TCDD maximum, read-out: Ahr1a Relative Emax (%), marked *; for Ahr1a REP25: EC25 of TCDD divided by concentration of PAC giving 25% of TCDD response.
Sequence of Atlantic cod Ahr1a (A0A6H1Z2L5 1-957): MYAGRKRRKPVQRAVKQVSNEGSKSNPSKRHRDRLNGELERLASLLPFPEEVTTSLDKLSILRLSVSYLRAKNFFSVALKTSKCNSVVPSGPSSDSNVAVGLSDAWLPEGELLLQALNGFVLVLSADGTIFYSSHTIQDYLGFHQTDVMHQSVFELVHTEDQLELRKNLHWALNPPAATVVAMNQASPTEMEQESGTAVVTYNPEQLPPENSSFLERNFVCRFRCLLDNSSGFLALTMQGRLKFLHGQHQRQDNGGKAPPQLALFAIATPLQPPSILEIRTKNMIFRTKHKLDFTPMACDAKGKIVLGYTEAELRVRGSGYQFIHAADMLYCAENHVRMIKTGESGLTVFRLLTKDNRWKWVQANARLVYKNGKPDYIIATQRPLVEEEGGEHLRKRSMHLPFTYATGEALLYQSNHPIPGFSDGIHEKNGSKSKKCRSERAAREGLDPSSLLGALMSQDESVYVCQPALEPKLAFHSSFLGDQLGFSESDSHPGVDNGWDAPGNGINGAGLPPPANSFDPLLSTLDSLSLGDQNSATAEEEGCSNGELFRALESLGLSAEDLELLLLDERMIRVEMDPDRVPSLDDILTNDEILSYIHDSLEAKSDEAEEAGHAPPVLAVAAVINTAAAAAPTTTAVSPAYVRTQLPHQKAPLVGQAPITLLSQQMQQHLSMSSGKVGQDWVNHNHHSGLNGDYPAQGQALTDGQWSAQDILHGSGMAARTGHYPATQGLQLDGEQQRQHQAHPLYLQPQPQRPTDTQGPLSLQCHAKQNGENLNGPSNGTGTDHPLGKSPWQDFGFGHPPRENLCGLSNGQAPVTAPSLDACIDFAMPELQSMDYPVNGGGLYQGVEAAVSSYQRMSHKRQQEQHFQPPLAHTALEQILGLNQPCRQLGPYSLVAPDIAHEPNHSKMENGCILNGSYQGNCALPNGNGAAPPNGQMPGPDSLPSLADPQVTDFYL
Sequence of Atlantic cod Ahr1a (A0A8C5CZZ9 1-645 partner): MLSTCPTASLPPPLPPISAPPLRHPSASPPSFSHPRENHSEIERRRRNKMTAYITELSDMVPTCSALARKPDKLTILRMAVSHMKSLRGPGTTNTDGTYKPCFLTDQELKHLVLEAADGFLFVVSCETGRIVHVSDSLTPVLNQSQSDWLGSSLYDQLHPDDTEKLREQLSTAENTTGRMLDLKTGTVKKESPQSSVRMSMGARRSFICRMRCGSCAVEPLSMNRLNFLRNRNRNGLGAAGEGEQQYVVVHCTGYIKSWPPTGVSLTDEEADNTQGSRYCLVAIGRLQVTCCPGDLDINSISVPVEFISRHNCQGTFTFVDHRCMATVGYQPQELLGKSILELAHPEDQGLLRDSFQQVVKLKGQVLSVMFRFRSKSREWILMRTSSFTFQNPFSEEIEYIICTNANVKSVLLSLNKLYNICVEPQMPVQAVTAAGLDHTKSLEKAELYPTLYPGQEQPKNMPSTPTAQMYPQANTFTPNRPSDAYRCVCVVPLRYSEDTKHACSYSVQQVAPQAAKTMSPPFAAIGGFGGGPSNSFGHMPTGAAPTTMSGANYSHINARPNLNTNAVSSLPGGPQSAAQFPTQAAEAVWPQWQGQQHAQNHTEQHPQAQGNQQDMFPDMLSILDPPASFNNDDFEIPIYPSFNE

In a further assay the target is T1, Atlantic cod Ahr2a (Gadus morhua, UniProt A0A6H1Z3G8).
T1 sequence (A0A6H1Z3G8 1-1127): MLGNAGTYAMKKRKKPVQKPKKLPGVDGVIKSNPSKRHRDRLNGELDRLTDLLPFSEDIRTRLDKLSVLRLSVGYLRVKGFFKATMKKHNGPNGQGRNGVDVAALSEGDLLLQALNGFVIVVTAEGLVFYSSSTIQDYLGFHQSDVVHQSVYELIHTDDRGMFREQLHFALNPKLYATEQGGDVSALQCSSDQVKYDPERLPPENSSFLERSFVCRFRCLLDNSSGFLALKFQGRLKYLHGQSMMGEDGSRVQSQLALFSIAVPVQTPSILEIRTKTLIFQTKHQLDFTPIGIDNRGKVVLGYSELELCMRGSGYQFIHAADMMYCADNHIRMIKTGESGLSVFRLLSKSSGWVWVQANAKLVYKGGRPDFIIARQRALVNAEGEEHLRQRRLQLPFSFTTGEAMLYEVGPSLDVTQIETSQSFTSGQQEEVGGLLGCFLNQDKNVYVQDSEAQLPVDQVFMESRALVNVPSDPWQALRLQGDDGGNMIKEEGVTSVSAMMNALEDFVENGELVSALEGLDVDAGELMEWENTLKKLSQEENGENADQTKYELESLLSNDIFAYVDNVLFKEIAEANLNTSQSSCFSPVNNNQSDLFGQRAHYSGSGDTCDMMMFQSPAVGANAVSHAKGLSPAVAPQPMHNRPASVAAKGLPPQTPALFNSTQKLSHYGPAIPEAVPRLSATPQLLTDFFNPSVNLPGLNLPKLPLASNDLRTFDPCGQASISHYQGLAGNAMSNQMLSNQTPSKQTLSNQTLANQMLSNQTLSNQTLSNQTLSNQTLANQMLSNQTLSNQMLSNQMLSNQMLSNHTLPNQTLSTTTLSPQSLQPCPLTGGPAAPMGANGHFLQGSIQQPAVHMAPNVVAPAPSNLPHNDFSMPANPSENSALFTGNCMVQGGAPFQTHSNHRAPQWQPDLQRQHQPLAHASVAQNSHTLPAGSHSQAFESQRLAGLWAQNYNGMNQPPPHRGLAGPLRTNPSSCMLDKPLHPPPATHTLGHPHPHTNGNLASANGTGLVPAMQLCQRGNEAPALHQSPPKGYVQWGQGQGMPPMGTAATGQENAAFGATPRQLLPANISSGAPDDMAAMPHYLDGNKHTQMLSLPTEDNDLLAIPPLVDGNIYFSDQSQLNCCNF
The assay can be described thus: cell-based. The following applies: for Activation of Ahr2a (agonist or not): in vitro transactivation; for Emax: COS-7, curve did not reach a plateau: relative response at the highest tested concentration, percent of TCDD maximum, read-out: Ahr2a Relative Emax (%), marked *; for Ahr2a REP25: EC25 of TCDD divided by concentration of PAC giving 25% of TCDD response.

[1] abbreviates: percent of maximum efficacy determined for TCDD, COS-7 cells, 24 h exposure, None = no agonistic response significantly different from solvent.

As to `c1cc2ccc3cccc4ccc(c1)c2c34` [PYR, Pyrene], the “Activation of Ahr1a (agonist or not)” value on Atlantic cod Ahr1a was “did not activate”. Also, the “Ahr1a Relative Emax (%)” value at Atlantic cod Ahr1a (setting [1]) is given as “None”. Further, the “Activation of Ahr2a (agonist or not)” value on Atlantic cod Ahr2a is recorded as “did not activate”. Besides, the “Ahr2a Relative Emax (%)” value at Atlantic cod Ahr2a (setting [1]) is “None”.

Turning to `O[C@@H]1C=Cc2ccccc2[C@H]1O` [R,R-1,2-DHN, (1R,2R)-1.2-Dihydronaphthalene-1,2-diol], at Atlantic cod Ahr1a, the maximal response (Emax) stood at 145%; the “Ahr1a REP25” value was determined as 0.00028; the “Activation of Ahr1a (agonist or not)” value is “activated both Ahr1a and Ahr2a”. Further, the “fold higher REP25 with Ahr2a compared to Ahr1a” value at Atlantic cod Ahr2a (Ahr2a versus Ahr1a) is listed as 5- to 10 fold. At Atlantic cod Ahr2a, the maximum response (Emax) was found to be 140%; the “Ahr2a REP25” value is reported as 0.00124; the “Activation of Ahr2a (agonist or not)” value is “activated both Ahr1a and Ahr2a”.

For `O[C@@H]1C=Cc2c(ccc3ccccc23)[C@H]1O` [R,R-1,2-DHP, (1R,2R)-1.2-Dihydrophenanthrene-1,2-diol], on Atlantic cod Ahr1a, the Emax amounted to 36.1%; the “Ahr1a REP25” value stood at 0.00002; the “Activation of Ahr1a (agonist or not)” value is “activated both Ahr1a and Ahr2a”. On Atlantic cod Ahr2a, the maximal response (Emax) stood at 25.9%; the “Ahr2a REP25” value stood at 0.000044; the “Activation of Ahr2a (agonist or not)” value is “activated both Ahr1a and Ahr2a”.

These data come from article PMC8600679, “Substituted Two- to Five-Ring Polycyclic Aromatic Compounds Are Potent Agonists of Atlantic Cod (Gadus morhua) Aryl Hydrocarbon Receptors Ahr1a and Ahr2a” (Environmental Science & Technology, 2021).
